Measurements: article PMC2533715, “Suppressive Effects of Selected Food Phytochemicals on CD74 Expression in NCI-N87 Gastric Carcinoma Cells” (Journal of Clinical Biochemistry and Nutrition, 2008)
Read-outs that look alike come from different tables or passages of the source.

Experiments:
Cell viability (MTT) = conditions: human
CD74 = assay: Cell-based ELISA for constitutive CD74 expression; set-up: species or system human
NF-κB [1] = test system: NF-κB; set-up: method as in PMID 15589482, PMID 16317159, PMID 9521814, PMID 17420607; conditions: several cell lines; cited from earlier work
in vitro = conditions: human
H. pylori = conditions: cited from earlier work
[2] = test system: NCI-N87 gastric carcinoma cells; assay: Cell viability (MTT); conditions: NCI-N87 cells, 48 h
NF-κB [3] = test system: NF-κB; set-up: method as in PMID 12106602; conditions: MKN45 gastric carcinoma cells co-cultured with H. pylori; cited from earlier work
[4] = test system: H. pylori-infected human gastric mucosal cells; set-up: method as in PMID 17028789; conditions: cited from earlier work
[5] = NCI-N87 gastric carcinoma cells
[6] = 4 µM, 48 h, NCI-N87 cells; mean ± average deviation
[7] = 20 µM, 48 h, NCI-N87 cells; mean ± average deviation
[8] = 100 µM, 48 h, NCI-N87 cells; mean ± average deviation
[9] = NCI-N87 cells, 48 h; mean of duplicate experiments; unit printed in b25 only; read-out: IC50 (50% inhibitory concentration) for constitutive CD74 expression

Structure (SMILES) | viability at 48 h, 4 µM (Cell viability (MTT); [5]) | viability at 48 h, 20 µM (Cell viability (MTT); [5]) | viability at 48 h, 100 µM (Cell viability (MTT); [5]) | IR (%) inhibition rate of CD74 expression (CD74; [6]) | IR (%) inhibition rate of CD74 expression (CD74; [7]) | IR (%) inhibition rate of CD74 expression (CD74; [8]) | IC50 (CD74; [9]) | CC50 at 48 h (Cell viability (MTT)) | also measured
O=S(=O)(O)O/N=C(/CCc1ccccc1)S[C@@H]1O[C@H](CO)[C@@H](O)[C@H](O)[C@H]1O [PEGLS, gluconasturtiin] | 99 ± 1.4% | 88 ± 1.7% | 90 ± 1.4% | −11 ± 4.4% | −25 ± 1.3% | −13 ± 3.8% | > 100 µM | – | CC50 at 48 h (Cell viability (MTT); [5]): > 100 µM
COc1ccc(-c2cc(=O)c3c(OC)c(OC)c(OC)c(OC)c3o2)cc1OC [Nobiletin] | 96 ± 0.3% | 93 ± 0.5% | 58 ± 5% | 1.8 ± 2.9% | 54 ± 5.0% | – | 18.8 µM | > 100 µM | NF-κB inhibition (NF-κB [1]): markedly inhibit; IR (%) inhibition rate of CD74 expression (CD74; 20 µM, 48 h, NCI-N87 cells; mean ± average deviation; listed as nobiletin): 40–65%; Suppression of CD74 expression (in words) (CD74; NCI-N87 cells, 48 h): significant activity
C[C@@H]1O[C@@H](OC[C@H]2O[C@@H](Oc3c(-c4ccc(O)c(O)c4)oc4cc(O)cc(O)c4c3=O)[C@H](O)[C@@H](O)[C@@H]2O)[C@H](O)[C@H](O)[C@H]1O [Rutin] | 97 ± 1.2% | 100 ± 1.1% | 80 ± 4.7% | −4.3 ± 2.8% | −3.0 ± 0.0% | 11 ± 4.5% | > 100 µM | > 100 µM | –
C=C[C@H](OC(C)=O)c1ccc(OC(C)=O)cc1 [ACA, 1'-acetoxychavicol acetate] | 92 ± 3.4% | 20 ± 0.2% | 6.1 ± 0.3% | 16 ± 1.6% | – | – | < 20 µM | – | CC50 at 48 h (Cell viability (MTT); [5]): 25 µM
C=CCC/C(=N/OS(=O)(=O)O)S[C@@H]1O[C@H](CO)[C@@H](O)[C@H](O)[C@H]1O [BUGLS, gluconapin] | 88 ± 6.9% | 80 ± 3.5% | 79 ± 5.6% | –15 ± 0.0% | −19 ± 2.5% | 4.0 ± 1.0% | > 100 µM | – | CC50 at 48 h (Cell viability (MTT); [5]): > 100 µM
S=C=NCCc1ccccc1 [PEITC, phenetyl isothiocyanate] | – | – | – | −17 ± 2.3% | – | – | < 20 µM | 61.3 µM | viability at 48 h, 4 µM (in vitro): 97 ± 4.8%; viability at 48 h, 20 µM (in vitro): 43 ± 1.8%; viability at 48 h, 100 µM (in vitro): 37 ± 2.2%
CC(C)=CCC/C(C)=C/COc1ccc2ccc(=O)oc2c1 [Auraptene] | 96 ± 2.7% | 79 ± 4.5% | 18 ± 0.4% | 2.4 ± 2.0% | 50 ± 0.4% | – | 19.8 µM | 59.2 µM | H. pylori colonization (H. pylori; in vivo): reduce; IR (%) inhibition rate of CD74 expression (CD74; 20 µM, 48 h, NCI-N87 cells; mean ± average deviation; listed as auraptene): 40–65%; Suppression of CD74 expression (in words) (CD74; NCI-N87 cells, 48 h): significant activity
S=C=NCc1ccccc1 [BITC, benzyl isothiocyanate] | 96 ± 3.4% | 56 ± 7.9% | – | –19 ± 0.6% | – | – | < 20 µM | 44.3 µM | viability at 48 h, 100 µM (in vitro): 6.1 ± 1.3%
O=C1O[C@H]([C@@H](O)CO)C(O)=C1O [Ascorbic acid] | 97 ± 1.7% | 94 ± 0.3% | 86 ± 5.8% | –12 ± 3.5% | 5.4 ± 3.8% | 6.8 ± 1.8% | > 100 µM | > 100 µM | H. pylori colonization and subsequent inflammation (H. pylori; Mongolian gerbils): reduced; IR (%) inhibition rate of CD74 expression (CD74; 100 µM, 48 h, NCI-N87 cells; mean ± average deviation; listed as ascorbic acid): did not suppress CD74
Cn1c(=O)c2c(ncn2C)n(C)c1=O [Caffeine] | 100 ± 2.6% | 100 ± 2.2% | 87 ± 1.9% | 10 ± 7.7% | 22 ± 6.9% | 41 ± 9.2% | > 100 µM | – | –
C[C@H]1[C@H](C)CC[C@]2(C(=O)O)CC[C@]3(C)C(=CC[C@@H]4[C@@]5(C)CC[C@H](O)C(C)(C)[C@@H]5CC[C@]43C)[C@H]12 [Ursolic acid] | 91 ± 1.6% | 38 ± 1.1% | 9.7% | 35 ± 6.1% | – | – | < 20 µM | – | CC50 at 48 h (in vitro): 35.4 µM
COc1ccc(-c2cc(=O)c3c(OC)c(OC)c(OC)c(OC)c3o2)cc1 [Tangeretin] | 98 ± 2.7% | 100 ± 0.5% | 63 ± 3.1% | −3.3 ± 3.3% | 21 ± 3.1% | – | 39.5 µM | > 100 µM | Suppression of CD74 expression (in words) (CD74; NCI-N87 cells, 48 h): significant activity
Oc1cc(O)c2c(c1)O[C@@H](c1ccc(O)c(O)c1)[C@H](O)C2 [(−)-Catechin] | 97 ± 2.5% | 97 ± 3.3% | 89 ± 5.9% | −6.4 ± 2.0% | 40 ± 2.1% | 65 ± 0.8% | 69.2 µM | – | CC50 at 48 h (Cell viability (MTT); [5]): > 100 µM; Cytotoxicity (in words) [2]: Marginal cytotoxicity; IR (%) inhibition rate of CD74 expression (CD74; 20 µM, 48 h, NCI-N87 cells; mean ± average deviation; listed as (−)-catechin): 40–65%; Suppression of CD74 expression (in words) (CD74; NCI-N87 cells, 48 h): suppressive only at a high concentration
O=c1c(-c2ccc(O)cc2)coc2cc(O)cc(O)c12 [Genistein] | 100 ± 0.4% | 84 ± 1.5% | 55 ± 4.6% | 8.6 ± 7.8% | 49 ± 7.2% | – | 20.5 µM | > 100 µM | IR (%) inhibition rate of CD74 expression (CD74; 20 µM, 48 h, NCI-N87 cells; mean ± average deviation; listed as genistein): 40–65%; NF-κB activation (NF-κB [3]): decreased
O=c1cc(-c2ccc(O)c(O)c2)oc2cc(O)cc(O)c12 [Luteolin] | 99 ± 2.9% | 81 ± 4.7% | 61 ± 1.5% | 4.0 ± 5.1% | 55 ± 1.2% | – | 18.4 µM | – | CC50 at 48 h (in vitro): > 100 µM; NF-κB inhibition (NF-κB [1]): markedly inhibit; IR (%) inhibition rate of CD74 expression (CD74; 20 µM, 48 h, NCI-N87 cells; mean ± average deviation; listed as luteolin): 40–65%
CC(C)=CC(=O)CC(C)c1ccc(C)cc1 (stereo not shown) [ar-Turmerone] | 97 ± 4.1% | 100 ± 3.2% | 57 ± 1.3% | 22 ± 0.5% | 39 ± 1.8% | – | 30.8 µM | > 100 µM | –
O=c1c(O)c(-c2ccc(O)c(O)c2)oc2cc(O)cc(O)c12 [Quercetin] | 100 ± 3% | 100 ± 3% | 51 ± 0.5% | 3.7 ± 0.0% | 51 ± 4.7% | – | 19.8 µM | > 100 µM | N-methyl-N’-nitro-N-nitrosoguanidine-induced inflammation [4]: reduced; NF-κB inhibition (NF-κB [1]): markedly inhibit; IR (%) inhibition rate of CD74 expression (CD74; 20 µM, 48 h, NCI-N87 cells; mean ± average deviation; listed as quercetin): 40–65%
COc1cc(/C=C/C(=O)O)ccc1O [Ferulic acid] | 96 ± 2.3% | 93 ± 0.7% | 82 ± 5.9% | −5.1 ± 4.3% | 15 ± 5.8% | 20 ± 3.8% | > 100 µM | > 100 µM | –
C=CCCN=C=S [BUITC, butenyl isothiocyanate] | 71 ± 5.8% | 73 ± 3.3% | 44 ± 2.4% | –9.0 ± 0.4% | 2.3 ± 0.8% | – | – | 81.5 µM | IC50 (CD74; read-out: IC50 (50% inhibitory concentration) for constitutive CD74 expression; NCI-N87 cells, 48 h; mean of duplicate experiments; unit printed in b25 only): > 100 µM
C/C1=C\CC(C)(C)/C=C/C(=O)/C(C)=C/CC1 [Zerumbone] | 100 ± 0.4% | 77 ± 0.3% | 16 ± 1.1% | 6.6 ± 0.8% | 57 ± 0.2% | – | 17.7 µM | – | NF-κB inhibition (NF-κB [1]): markedly inhibit; CC50 at 48 h (Cell viability (MTT); [5]): 60.5 µM; IR (%) inhibition rate of CD74 expression (CD74; 20 µM, 48 h, NCI-N87 cells; mean ± average deviation; listed as zerumbone): 40–65%
O=C(O)c1cc(O)c(O)c(O)c1 [Gallic acid] | 97 ± 0.2% | 73 ± 2.4% | 97 ± 2.1% | 15 ± 2.4% | 57 ± 3.7% | 47 ± 8.3% | 96.4 µM | > 100 µM | IR (%) inhibition rate of CD74 expression (CD74; 20 µM, 48 h, NCI-N87 cells; mean ± average deviation; listed as gallic acid): 40–65%
COc1cc(/C=C/C(=O)CC(=O)/C=C/c2ccc(O)c(OC)c2)ccc1O [Curucumin, curcumin] | 89 ± 1.1% | 12 ± 1.9% | 14 ± 6.8% | 21 ± 8.0% | – | – | < 20 µM | – | CC50 at 48 h (in vitro): 44.3 µM
